The conditions of data set [1]: cited from earlier work; for pK-values (first value) / pK-values (second value) / pK-values (third value): Table I, 37° C.
Data set [2] is described as follows: Osmotic coefficient and osmolality of solutions. It is filed as physicochemical. The text has this: a) Osmotic Coefficients of Compounds According to the Invention and not According to the Invention
Data set [3] is described as follows: Buffer properties / acid-base data of 0.1 molar salt solutions (37° C.). The following applies: 0.1 molar solution; for NaOH ΔpH 7.2-7.6: NaOH necessary for ΔpH of 7.2-7.6; for Titr. on 7.4: NaOH necessary to set pH 7.4; for β (at 7.4) buffer capacity: calculated from NaOH for ΔpH 7.2-7.6.
Source text: NaOH mmol/l for ΔpH of 7.2-7.6: how much NaOH in mmol/l is necessary for that ΔpH.
2. β (mmol/l/pH): the buffer capacity calculated therefrom at pH 7.40.
Titr on 7.4 (mmol/l): how much NaOH is necessary to set a pH-value of 7.4.
If a physiological pH-value of 7.4 is to be set in a 0.1 molar solution then the corresponding additives are specified in the column Titration pH=7.4. It is therefore specified how much NaOH (mmol/l) is to be added to set that pH-value.
For data set [4] the following is noted: 0.1 molar solution, (literature); cited from earlier work.
Data set [5] can be described thus: Feed of bicarbonate: arginine / arginine acetate solution equilibrated with CO2. The settings on record: ionic strength 160 mmol/l and 37° C. It is filed as physicochemical. On the procedure: If a solution with 48 mmol/l arginine is mixed with 24 mmol/l acetic acid that gives a mixture respectively comprising 24 mmol/l arginine and arginine acetate with a pH-value of about 8.6. That pH-value corresponds to the effective pK value of arginine (ionic strength 160 mmol/l and 37° C.). If that solution is necessarily equilibrated after infusion in the patient to a pCO2 of about 40 mmHg a maximum of 24 mmol/l arginine HCO3 will occur. Thus the physiological values of about 24 mmol/l HCO3 and a pH-value of about 7.4 will occur (for comparison arginine equilibration with pure CO2 in Table 1).

Results on 19 molecules are retold here after patent US20140323573A1, “METABOLIZABLE SALTS AND USE THEREOF IN DIAGNOSTICS AND THERAPY” (priority 2011, published 2014).

Structures can show the parent of a compound that is named as a salt. Where two headings read alike, the source gives them in different places.

On to `O=S(=O)(O)CCN1CCN(CCO)CC1` [Hepes], for which the pK in data set [1] is reported as 7.35.

In data set [2], `O=C([O-])O.[Na+]` [NaHCO3] displayed an Osmot. valence of 2. This molecule came in with an Osmot. coefficient in data set [2] (0.1 molar solution, (assumed)) of 0.926.

Take `N` [NH4^+]: in data set [1], the pK is recorded as 9.0.

In data set [2], `O=C(O)CC(O)(CC(=O)O)C(=O)O` [Na3 citrate] gave an Osmot. valence of 4. This molecule yielded an Osmot. coefficient in data set [2] (0.1 molar solution) of 0.681.

With `O=C(O)O` [carbonic acid], the “pK-values (first value)” value in data set [1] is recorded as 6.1.

On to `CC(=O)O.NCCCC[C@H](N)C(=O)O` [Lysine Acetate, lysine acetate], for which, in data set [3], the pH stood at 5.99, the “NaOH ΔpH 7.2-7.6” value came out at 2.5 mmol/L, the “Titr. on 7.4” value was 6.8 mmol/L and the “β (at 7.4) buffer capacity” value is recorded as 6.3 mmol/l/pH.

As for `O=C(O)CC(O)(CC(=O)O)C(=O)O` [Lys3 citrate, tri-lysine citrate], the Osmot. coefficient in data set [2] (0.1 molar solution) stood at 0.715. Besides, in data set [3], the pH was 6.88, the “NaOH ΔpH 7.2-7.6” value worked out at 5.9 mmol/L, the “Titr. on 7.4” value worked out at 5.8 mmol/L and the “β (at 7.4) buffer capacity” value was 14.8 mmol/l/pH.

With `NC(CO)(CO)CO` [Tris], in data set [1], the pK is 8.2.

The molecule `O=C(O)CC(O)(CC(=O)O)C(=O)O` [K3 citrate] came in with an Osmot. valence in data set [2] of 4. In addition, the Osmot. coefficient in data set [2] (0.1 molar solution) is given as 0.681.

Regarding `[Cl-].[Na+]` [NaCl], the Osmot. valence in data set [2] is on record as 2. For the same molecule, in data set [4], the Osmot. coefficient is given as 0.926.

For the molecule `Cl.N=C(N)NCCC[C@H](N)C(=O)O` [Arg HCl, arginine hydrochloride], in data set [2], the Osmot. valence amounted to 2. Besides, the Osmot. coefficient in data set [2] (0.1 molar solution) came out at 0.895.

`O=C(O)CC(O)C(=O)O` (stereo not shown) [malic acid]: in data set [1], the “pK-values (first value)” value is 3.5 and the “pK-values (second value)” value is on record as 4.7.

Consider `CC(=O)O.N=C(N)NCCC[C@H](N)C(=O)O` [Arg acetate, arginine acetate], for which the pK in data set [1] was 4.6. In addition, in data set [3], the pH came out at 5.99, the “NaOH ΔpH 7.2-7.6” value was determined as 2.8 mmol/L, the “Titr. on 7.4” value is 7.3 mmol/L and the “β (at 7.4) buffer capacity” value is reported as 7.0 mmol/l/pH.

In the case of `NCCCC[C@H](N)C(=O)O` [Lysine, lysine], the Osmot. valence in data set [2] came out at 1. The same molecule yielded an Osmot. coefficient in data set [2] (0.1 molar solution) of 1.000. Besides, in data set [1], the “pK-values (first value)” value is on record as 2.2, the “pK-values (second value)” value is listed as 8.9 and the “pK-values (third value)” value is given as 10.3. Also, in data set [3], the pH is on record as 9.55.

For `N=C(N)NCCC[C@H](N)C(=O)O.O=C(O)O` [Arg HCO3], in data set [2], the Osmot. valence was 2. The Osmot. coefficient was determined as 0.833 in data set [2] (0.1 molar solution); 0.2 m 0.833 100% CO2 at 37 °C in data set [2] (0.2 m, 100% CO2 at 37° C.); 0.3 m 0.763 100% CO2 at 37 °C in data set [2] (0.3 m, 100% CO2 at 37° C.).

As for `CC(=O)O` [acetic acid], the “pK-values (first value)” value in data set [1] is recorded as 4.6.

For `N=C(N)NCCC[C@H](N)C(=O)O` [Arginine, arginine], the Osmot. valence in data set [2] is on record as 1. In addition, in data set [2] (0.1 molar solution), the Osmot. coefficient turned out to be 0.980 and the osmolality is reported as 98 mosmol/kg H2O. In addition, in data set [1], the “pK-values (first value)” value is listed as 2.0, the “pK-values (second value)” value is given as 9.0 and the “pK-values (third value)” value is given as 12.1. The pH in data set [3] is recorded as 10.26. In addition, in data set [5], the “effective pK value” is on record as “about 8.6”.

Take `O=C(O)CC(O)(CC(=O)O)C(=O)O` [citric acid]: in data set [2], the Osmot. valence turned out to be 3. This molecule displayed an Osmot. coefficient in data set [2] (0.1 molar solution) of 0.555. Also, in data set [1], the “pK-values (first value)” value is recorded as 3.0, the “pK-values (second value)” value is listed as 4.4 and the “pK-values (third value)” value is 5.8.

As to `O=C(O)O` [HCO3^−], in data set [1], the pK was 6.1.
